Results on 26 compounds are retold here after US11161839B2, “2-quinolone derived inhibitors of BCL6” (Cancer Research Technology Limited, priority 2017, dated 2021).

Like-named read-outs stand apart in the source and are kept apart here.

Test [1] concerns the target human BCL6 BTB domain (Trx-6xHis-BCL6) (Homo sapiens (Human), UniProt P41182). Nature of the test: HTRF in vitro assay (BCL6 BTB domain / BCOR-AF633 peptide). The note with it: further generated data (Table 1b), 1 nM Trx-6xHis-BCL6, 0.5 nM anti-6xHis-Terbium cryptate; for IC50: read-out: HTRF pIC50 (converted). It is filed as binding. A general note: Time-resolved FRET reads energy transfer from a long-lived donor to a nearby acceptor.
Experimental: The % inhibition at each concentration was calculated by normalising FRET ratio to the appropriate high (DMSO with all reagents) and low (DMSO without BCL6) controls.

In test [2] the target is BCL6-NCOR2(SMRT) corepressor protein-protein interaction (Homo sapiens (Human), UniProt P41182). Nature of the test: NanoBRET cell assay in transfected HEK293T cells. Type of test: cell-based. For orientation: In BRET a luciferase serves as donor, and the signal depends on an acceptor being close.
[3] abbreviates: further generated data (Table 2b), HEK293T cells, 6 hr, read-out: NanoBRET cell pIC50 (converted).

As for `CC(Nc1cc(=O)n(C)c2ccc(Nc3cc(-n4cc(CCO)cn4)ncc3Cl)cc12)c1ncccn1` (stereo not shown) [Example 15i, 6-((5-chloro-2-(4-(2-hydroxyethyl)-1H-pyrazol-1-yl)pyridin-4-yl)amino)-1-methyl-4-((1-(pyrimidin-2-yl)ethyl)amino)quinoline-2(1H)-one], the “HTRF pIC50” value in test [1] amounted to 6.58. Moreover, the IC50 in test [2] (setting [3]) is 1550 nM.
Consider `Cn1c(=O)cc(NC(C)(C)c2ncccn2)c2cc(Nc3nc(-n4ccc(C(F)(F)F)n4)ncc3Cl)ccc21` [Example 14d, 6-((5-chloro-2-(3-(trifluoromethyl)-1H-pyrazol-1-yl)pyrimidin-4-yl)amino)-1-methyl-4((2-(pyrimidin-2-yl)propan-2-yl)amino)quinolin-2(1H)-one], for which the “HTRF pIC50” value in test [1] stood at 6.44. Further, the IC50 in test [2] (setting [3]) was 2040 nM.
For the compound `COC[C@@H]1CCCN1C(=O)c1cc(Nc2ccc3c(c2)c(NC(C)(C)c2ncccn2)cc(=O)n3C)c(C#N)c(Cl)n1` [Example 8e], the IC50 was 28.2 nM in test [1] and 676 nM in test [2] (setting [3]).
On to `C[C@@H](Nc1cc(=O)n(C)c2ccc(Nc3cc(C(=O)N4CCC4)ncc3Cl)cc12)C1CC1` [Example 15d, (R)-6-((2-(azetidine-1-carbonyl)-5-chloropyridin-4-yl)amino)-4-((1-cyclopropylethyl)amino)-1-methylquinolin-2(1H)-one], for which the “HTRF pIC50” value in test [1] was found to be 6.42. In addition, in test [2] (setting [3]), the IC50 was 1780 nM.
For the compound `Cc1cnc(C(C)Nc2cc(=O)n(C)c3ccc(Nc4ccnc(Cl)c4C#N)cc23)nc1` (stereo not shown) [Example 10f], the “HTRF pIC50” value in test [1] is listed as 7.12. This compound gave an IC50 in test [2] of 1070 nM.
As to `CC(=O)N(C)c1cc(Nc2ccc3c(c2)c(NC(C)c2ncccn2)cc(=O)n3C)c(Cl)cn1` (stereo not shown) [Example 21, N-(5-Chloro-4-((1-methyl-2-oxo-4-((1-(pyrimidin-2-yl)ethyl)amino)-1,2-dihydroquinolin-6-yl)amino)pyridin-2-yl)-N-methylacetamide], the “HTRF pIC50” value in test [1] is reported as 6.33. Moreover, the IC50 in test [2] (setting [3]) was 6760 nM.
With `CCC(C)(COC)Nc1cc(=O)n(C)c2ccc(Nc3cc(C(=O)NC)nc(Cl)c3C#N)cc12` (stereo not shown) [Example 19f, 6-chloro-5-cyano-4-((4-((1-methoxy-2-methylbutan-2-yl)amino)-1-methyl-2-oxo-1,2-dihydroquinolin-6-yl)amino)-N-methylpicolinamide], the “HTRF pIC50” value in test [1] is 6.40. Moreover, in test [2] (setting [3]), the IC50 was 2950 nM.
With `Cn1c(=O)cc(NC2(C#N)CC2)c2cc(Nc3ccnc(Cl)c3C#N)ccc21` [Example 24b, 2-chloro-4-((4-((1-cyanocyclopropyl)amino)-1-methyl-2-oxo-1,2-dihydroquinolin-6-yl)amino)nicotinonitrile], the “HTRF pIC50” value in test [1] amounted to 6.49. The IC50 in test [2] (setting [3]) was 4790 nM.
Taken in the same sequence, the figures for `CN(C)C(=O)c1cc(Nc2ccc3c(c2)c(NC(C)(C)c2ncccn2)cc(=O)n3C)c(C#N)c(Cl)n1` [Example 19a, 6-chloro-5-cyano-N,N-dimethyl-4-((1-methyl-2-oxo-4-((2-(pyrimidin-2-yl)propan-2-yl)amino)-1,2-dihydroquinolin-6-yl)amino)picolinamide] were 7.55 and 2750 nM.
For the compound `CC(Nc1cc(=O)n(C)c2ccc(Nc3nc(N4CCC(F)(F)C(CO)C4)ncc3Cl)cc12)c1ncccn1` (single isomer, unassigned) [Example 26d], the values for the IC50 in test [1] and in test [2] (setting [3]) were 501 nM and 3800 nM, respectively.
For `CCC(C)(Nc1cc(=O)n(C)c2ccc(Nc3ccnc(Cl)c3C#N)cc12)c1ncccn1` (stereo not shown) [Example 24c, 2-chloro-4-((1-methyl-2-oxo-4-((2-(pyrimidin-2-yl)butan-2-yl)amino)-1,2-dihydroquinolin-6-yl)amino)nicotinonitrile], the “HTRF pIC50” value in test [1] is recorded as 6.45. The IC50 in test [2] (setting [3]) is 5130 nM.
The matching figures for `CC(Nc1cc(=O)n(C)c2ccc(Nc3ccnc(Cl)c3C#N)cc12)c1ccccn1` (stereo not shown) [Example 11d, 2-chloro-4-((1-methyl-2-oxo-4-((1-(pyridin-2-yl)ethyl)amino)-1,2-dihydroquinolin-6-yl)amino)nicotinonitrile: formic acid (1:1)]: 6.34 and 4370 nM.
Turning to `COc1cc(Nc2nc(N3CCC(C(=O)N(C)C)CC3)ncc2Cl)cc2c(NC(C)(C)c3ncccn3)cc(=O)n(C)c12` [Example 12c], the IC50 in test [1] was 525 nM; in test [2] (setting [3]), 3310 nM.
Regarding `CNC(=O)c1cc(Nc2ccc3c(c2)c(NC2CCC2OC)cc(=O)n3C)c(C#N)c(Cl)n1` (racemic) [Example 23a, rac-6-chloro-5-cyano 4-((4-(((1R,2R)-2-methoxycyclobutyl)amino)-1-methyl-2-oxo-1,2-dihydroquinolin-6-yl)amino)-N-methylpicolinamide or rac-6-chloro-5-cyano-4-((4-(((1R,2S)-2-methoxycyclobutyl)amino)-1-methyl-2-oxo-1,2-dihydroquinolin-6-yl)amino)-N-methylpicolinamide], the IC50 in test [1] is 380 nM; in test [2] (setting [3]), 6760 nM.
With `Cn1c(=O)cc(NC(C)(C)c2ncc(C3CC3)cn2)c2cc(Nc3cc(C(=O)N4CCC4)nc(Cl)c3C#N)ccc21` [Example 8b, 6-(azetidine-1-carbonyl)-2-chloro-4-((4-((2-(5-cyclopropylpyrimidin-2-yl)propan-2-yl)amino)-1-methyl-2-oxo-1,2-dihydroquinolin-6-yl)amino)nicotinonitrile], in test [1], the “HTRF pIC50” value is on record as 7.86. For the same compound, the IC50 in test [2] (setting [3]) is 741 nM.
With `CC(Nc1cc(=O)n(C)c2ccc(Nc3nc(NCc4cccnc4)ncc3Cl)cc12)c1ncccn1` (stereo not shown) [Example 17f, 6-((5-chloro-2-((pyridin-3-ylmethyl)amino)pyrimidin-4-yl)amino)-1-methyl-4((1-(pyrimidin-2-yl)ethyl)amino)quinolin-2(1H)-one:formic acid (1:1)], the “HTRF pIC50” value in test [1] was 6.32. The IC50 in test [2] (setting [3]) was 3240 nM.
The matching figures for `CC(Nc1cc(=O)n(C)c2ccc(Nc3nc(N4C[C@@H](C)O[C@@H](C)C4)ncc3Cl)cc12)c1ncccn1` (stereo partly drawn) [Example 17a, 6-((5-chloro-2-((2S,6R)-2,6-dimethylmorpholino)pyrimidin-4-yl)amino)-1-methyl-4-((1-(pyrimidin-2-yl)ethyl)amino)quinolin-2(1H)-one]: 6.48 and 1780 nM.
`C[C@@H](Nc1nc(=O)n(C)c2ccc(Nc3ccnc(Cl)c3C#N)cc12)C1CC1` [Example 10m, (R)-2-chloro-4-((4-((1-cyclopropylethyl)amino)-1-methyl-2-oxo-1,2-dihydroquinazolin-6-yl)amino)nicotinonitrile]: the “HTRF pIC50” value in test [1] turned out to be 6.66. Besides, the IC50 in test [2] (setting [3]) was 2750 nM.
With `CC(Nc1cc(=O)n(C)c2ccc(Nc3cc(N4CCC(F)(F)CC4)ncc3Cl)cc12)c1ncccn1` (stereo not shown) [Example 15h, 6-((5-chloro-2-(4,4-difluoropiperidin-1-yl)pyridin-4-yl)amino)-1-methyl-4-((1-(pyrimidin-2-yl)ethyl)amino)quinolin-2(1H)-one], the “HTRF pIC50” value in test [1] was 6.21. In addition, the IC50 in test [2] (setting [3]) was 6920 nM.
The matching figures for `COc1ncc(Cl)c(Nc2ccc3c(c2)c(N[C@H](C)C2CC2)cc(=O)n3C)n1` [Example 11e]: 6.20 and 3470 nM.
Taken in the same sequence, the figures for `CN(C)C(=O)C1CCN(c2ncc(Cl)c(Nc3ccc4c(c3)c(NC(C)(C)c3ncccn3)cc(=O)n4C)n2)CC1` [Example 16a, 1-(5-chloro-4-((1-methyl-2-oxo-4-((2-(pyrimidin-2-yl)propan-2-yl)amino)-1,2-dihydroquinolin-6-yl)amino)pyrimidin-2-yl)-N,N-dimethylpiperidine-4-carboxamide] were 6.58 and 2630 nM.
As for `COCC1CCN1c1ncc(Cl)c(Nc2ccc3c(c2)c(N[C@H](C)C2CC2)cc(=O)n3C)n1` (stereo partly drawn) [Example 26b, 6-((5-chloro-2-(2-(methoxymethyl)azetidin-1-yl)pyrimidin-4-yl)amino)-4-(((R)-1-cyclopropylethyl)amino)-1-methylquinolin-2(1H)-one: formic acid (1:1)], the “HTRF pIC50” value in test [1] is reported as 6.31. Besides, the IC50 in test [2] (setting [3]) was 2690 nM.
Consider `C[C@@H]1CN(c2cnc(C(C)(C)Nc3cc(=O)n(C)c4ccc(Nc5ccnc(Cl)c5C#N)cc34)nc2)C[C@H](C)O1` [Example 7a, 2-Chloro-4-((4-((2-(5-((2R,6S)-2,6-dimethylmorpholino)pyrimidin-2-yl)propan-2-yl)amino)-1-methyl-2-oxo-1,2-dihydroquinolin-6-yl)amino)nicotinonitrile], for which the “HTRF pIC50” value in test [1] is reported as 7.91. In addition, the IC50 in test [2] (setting [3]) was 347 nM.
Take `Cc1nc(-n2ccc(C(F)(F)F)n2)nc(Nc2ccc3c(c2)c(NC(C)(C)c2ncccn2)cc(=O)n3C)c1Cl` [Example 14a, 6-((5-chloro-6-methyl-2-(3-(trifluoromethyl)-1H-pyrazol-1-yl)pyrimidin-4-yl)amino)-1-methyl-4-((2-(pyrimidin-2-yl)propan-2-yl)amino)quinolin-2(1H)-one]: the “HTRF pIC50” value in test [1] came to 6.66. Besides, the IC50 in test [2] (setting [3]) was 3890 nM.
Take `Cn1c(=O)cc(NC(C)(C)c2ncc(C3CC3)cn2)c2cc(Nc3ccnc(Cl)c3Cl)ccc21` [Example 6j, 4-((2-(5-cyclopropylpyrimidin-2-yl)propan-2-yl)amino)-6-((2,3-dichloropyridin-4-yl)amino)-1-methylquinolin-2(1H)-one]: in test [1], the “HTRF pIC50” value stood at 6.84. For the same compound, in test [2] (setting [3]), the IC50 was 1200 nM.
In the case of `C[C@@H](Nc1cc(=O)n(C)c2ccc(Nc3cc(-n4cc(CCO)cn4)ncc3Cl)cc12)C1CC1` [Example 15f, (R)-6-((5-chloro-2-(4-(2-hydroxyethyl)-1H-pyrazol-1-yl)pyridin-4-yl)amino)-4-((1-cyclopropylethyl)amino)-1-methylquinolin-2(1H)-one], in test [1], the “HTRF pIC50” value is recorded as 6.58. Moreover, the IC50 in test [2] (setting [3]) was 2290 nM.
